*1 amine or outer side, *2 acyl side, *3 side chain or, on linkers, in order; H or OH if unused. Where a SMILES comes first, the peptide text is derived from it. Bridges are numbered along the chain shown (N, C = ends). The star is where a group is joined. C20 diacid = O=C(O)CCCCCCCCCCCCCCCCCCC(=O)*; γGlu = O=C(O)[C@H](CCC(=O)[*:2])N[*:1]; AEEA = NCCOCCOCC(=O)O
Tests used:
[1] = target: T1, Amylin 3(a) receptor (human calcitonin receptor (CTa) and RAMP-3) (Homo sapiens, UniProt O60896+P30988); assay: Luciferase assay (III), BHK Amylin 3(a)//CRE-luc cells; format: cell-based; details: BHK cells with Amylin 3(a) receptor and CRE luciferase reporter, 4 hours incubation; read-out: Potency Luciferase
T1 construct: expressed in transfected cells; host or cells: BHK570 cells, stably transfected with a CRE-luciferase reporter
How it was run: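 BHK570 cells stably expressing CTa, RAMP-3 and a CRE-luciferase reporter, seeded at about 20,000 cells/well and grown overnight. Cells were exposed to standard or sample for 4 h at 37° C in phenol red-free DMEM with 10% FBS and 10 mM Hepes, pH 7,4. Luminescence was read after 30 min LucLite at room temperature.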

[2] = Assay (V) PK - determination of T½ in mini-pig; format: in vivo; details: minipig, sc; terminal plasma half-life, subcutaneous, approx 2 nmol/kg, male Göttingen mini-pigs
Protocol: Assay (V) PK—Determination OF T½ in Mini-Pig
T½ is the terminal half-life=ln 2/λz of a compound in plasma. λz is the first order rate constant associated with the terminal (log-linear) portion of the plasma concentration-time curve and is estimated by linear regression of time vs. log concentration.
T½ values of the amylin analogues of the invention is determined by pharmacokinetic studies in male Göttingen mini-pigs from Ellegaard Göttingen Minipigs ApS and the principles of laboratory animal care are followed.
An acclimatization period of approximately 6-10 days was allowed before the animals entered the study. At start of the acclimatization period the mini-pigs were about 5 to 12 months old and in the weight range of 7-35 kg. The mini-pigs had two central venous catheters inserted which were used for blood sampling.
The studies were conducted in an animal room which was illuminated to give a cycle of approx 12 hours light and 12 hours darkness. The animals were housed individually.
The animals had free access to domestic quality drinking water during the study, but were typically fasted from overnight before dosing until approx 6-12 hours after dosing. The animals were weighed on arrival and on the days of dosing.
In the present studies the test substances were administered subcutaneously in approx 2 nmol/kg dose. The animals received a single subcutaneous injection. The subcutaneous injection was given on the right side of the neck, approximately 5-7 cm from the ear and 7-9 cm from the middle of the neck. The injections were given with a stopper on the needle, allowing approx 0.5 cm of the needle to be introduced. Each test substance was given to typically three but in some cases two or four animals.
A full plasma concentration-time profile, employing 12-16 sampling points, was obtained from each animal. In example blood samples were collected according to the following schedule:
After subcutaneous administration:
Predose (0), 0.5, 1, 2, 4, 6, 8, 12, 24, 48, 72, 96, 120, 168 and 240 hours after injection. In some cases also additional blood samples up to 288 hours post injection were taken.
At each sampling time, 0.5 to 2 ml of blood was drawn from each animal. The blood samples were taken via the central venous catheter.
The blood samples were collected into EDTA test tubes (i.e. Sarstedt Micro tube 1.3 mL K3E). Blood samples were kept on ice for max 20 min. before centrifugation. Plasma was separated using centrifugation (i.e. at 4° C., 10 min., 1500 G) and was immediately transferred to Micronic tubes. Approximately 200 μl plasma was transferred to each Micronic tube. The plasma was stored at −20° C. until assayed. The plasma samples were assayed for the content of amylin using an ELISA assay.
The plasma concentration-time profiles were analysed by a non-compartmental pharmacokinetic analysis (NCA) using WinNonlin Professional 5.0 (Pharsight Inc., Mountain View, Calif., USA). NCA was performed using the individual plasma concentration-time profiles from each animal. T½ is the terminal half-life=ln 2/λz and was determined from λz, the first order rate constant associated with the terminal (log-linear) portion of the curve, estimated by linear regression of time vs. log concentration.
ELISA Plasma Assay for Amylin Quantification
The human amylin ELISA is a monoclonal antibody-based sandwich immunoassay for determining amylin levels in human plasma. The capture antibody recognizes human amylin, amylin acid (deamidated amylin), a 1-20 fragment of amylin, but not reduced amylin.
The detection antibody binds to reduced or unreduced human amylin but not amylin acid and is complexed with streptavidin-alkaline phosphatase. The substrate, 4-methylumbelliferyl phosphate, is applied to the completed sandwich and the fluorescent signal, monitored at 355 nm/460 nm, is proportional to the amount of amylin present in the sample.

T1 sequence (O60896 24-148): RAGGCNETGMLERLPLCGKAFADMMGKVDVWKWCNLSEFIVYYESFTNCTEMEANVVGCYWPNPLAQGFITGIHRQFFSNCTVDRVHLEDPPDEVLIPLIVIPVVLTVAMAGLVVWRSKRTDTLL
T1 sequence (P30988 25-474): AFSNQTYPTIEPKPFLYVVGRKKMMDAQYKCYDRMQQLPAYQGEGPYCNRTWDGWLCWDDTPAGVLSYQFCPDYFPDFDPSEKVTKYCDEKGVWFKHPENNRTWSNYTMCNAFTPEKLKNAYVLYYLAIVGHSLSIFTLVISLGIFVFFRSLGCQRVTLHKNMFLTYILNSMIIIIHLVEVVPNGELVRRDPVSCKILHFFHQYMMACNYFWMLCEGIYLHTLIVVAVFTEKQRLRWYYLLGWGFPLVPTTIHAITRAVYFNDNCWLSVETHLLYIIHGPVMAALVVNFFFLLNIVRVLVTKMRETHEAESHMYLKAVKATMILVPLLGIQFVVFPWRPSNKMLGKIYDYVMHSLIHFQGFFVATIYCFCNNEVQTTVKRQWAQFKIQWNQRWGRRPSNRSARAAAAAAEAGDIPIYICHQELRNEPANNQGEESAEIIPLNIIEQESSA

| Compound | EC50 [1] | half-life [2] |
| --- | --- | --- |
| CC[C@H](C)[C@H](NC(=O)[C@@H]1CCCN1C(=O)CNC(=O)[C@H](Cc1ccccc1)NC(=O)[C@H](CC(N)=O)NC(=O)[C@H](CC(N)=O)NC(=O)[C@H](CO)NC(=O)[C@H](CO)NC(=O)[C@H](Cc1c[nH]cn1)NC(=O)[C@H](Cc1c[nH]cn1)NC(=O)[C@H](CC(C)C)NC(=O)[C@H](Cc1ccccc1)NC(=O)[C@H](CC(N)=O)NC(=O)[C@H](C)NC(=O)[C@H](CC(C)C)NC(=O)[C@H](CCCNC(=N)N)NC(=O)[C@H](CCC(N)=O)NC(=O)[C@@H](NC(=O)[C@H](C)NC(=O)[C@@H]1CSSC[C@H](NC(=O)[C@H](Cc2c[nH]cn2)NC(=O)CC[C@H](NC(=O)CCCCCCCCCCCCCCCCCCC(=O)O)C(=O)O)C(=O)N[C@@H](CC(N)=O)C(=O)N[C@@H]([C@@H](C)O)C(=O)N[C@@H](C)C(=O)N[C@@H]([C@@H](C)O)C(=O)N1)[C@@H](C)O)C(=O)N[C@@H](CC(C)C)C(=O)N1CCC[C@H]1C(=O)N1CCC[C@H]1C(=O)N[C@H](C(=O)N[C@@H](CC(N)=O)C(=O)N[C@H](C(=O)NCC(=O)N[C@@H](CO)C(=O)N[C@@H](CC(N)=O)C(=O)N[C@H](C(=O)N[C@@H](Cc1ccc(O)cc1)C(N)=O)[C@@H](C)O)C(C)C)[C@@H](C)O [Example 29, N-alpha-[(S)-4-Carboxy-4-(19-carboxynonadecanoylamino)butyryl]-[His1,His17]-pramlintide] ({C20 diacid-γGlu}-HCNTATCATQRLANFLHHSSNNFGPILPPTNVGSNTY-NH2; disulfide 2-7) | 0.07 nM | 110 h |
| CC[C@H](C)[C@H](NC(=O)[C@@H]1CCCN1C(=O)CNC(=O)[C@H](Cc1ccccc1)NC(=O)[C@H](CC(N)=O)NC(=O)[C@H](CC(N)=O)NC(=O)[C@H](CO)NC(=O)[C@H](CO)NC(=O)[C@H](Cc1c[nH]cn1)NC(=O)[C@H](Cc1c[nH]cn1)NC(=O)[C@H](CC(C)C)NC(=O)[C@H](Cc1ccccc1)NC(=O)[C@H](CC(N)=O)NC(=O)[C@H](C)NC(=O)[C@H](CC(C)C)NC(=O)[C@H](CCCNC(=N)N)NC(=O)[C@H](CCC(N)=O)NC(=O)[C@@H](NC(=O)[C@H](C)NC(=O)[C@@H]1CSSC[C@H](NC(=O)[C@H](Cc2c[nH]cn2)NC(=O)COCCOCCNC(=O)CC[C@H](NC(=O)CCCCCCCCCCCCCCCCCCC(=O)O)C(=O)O)C(=O)N[C@@H](CC(N)=O)C(=O)N[C@@H]([C@@H](C)O)C(=O)N[C@@H](C)C(=O)N[C@@H]([C@@H](C)O)C(=O)N1)[C@@H](C)O)C(=O)N[C@@H](CC(C)C)C(=O)N1CCC[C@H]1C(=O)N1CCC[C@H]1C(=O)N[C@H](C(=O)N[C@@H](CC(N)=O)C(=O)N[C@H](C(=O)NCC(=O)N[C@@H](CO)C(=O)N[C@@H](CC(N)=O)C(=O)N[C@H](C(=O)N[C@@H](Cc1ccc(O)cc1)C(N)=O)[C@@H](C)O)C(C)C)[C@@H](C)O [Example 37, N-alpha-[2-(2-{2-[4-(S)-Carboxy-4-(19-carboxynonadecanoylamino)butyrylamino]ethoxy}ethoxy)acetyl]-[His1,His17]-pramlintide] ({C20 diacid-γGlu-AEEA}-HCNTATCATQRLANFLHHSSNNFGPILPPTNVGSNTY-NH2; disulfide 2-7) | 0.09 nM | 66 h |
| CC[C@H](C)[C@H](NC(=O)[C@@H]1CCCN1C(=O)CNC(=O)[C@H](Cc1ccccc1)NC(=O)[C@H](CC(N)=O)NC(=O)[C@H](CC(N)=O)NC(=O)[C@H](CO)NC(=O)[C@H](CO)NC(=O)[C@H](Cc1c[nH]cn1)NC(=O)[C@H](Cc1c[nH]cn1)NC(=O)[C@H](CC(C)C)NC(=O)[C@H](Cc1ccccc1)NC(=O)[C@H](CC(N)=O)NC(=O)[C@H](C)NC(=O)[C@H](CC(C)C)NC(=O)[C@H](CCCNC(=N)N)NC(=O)[C@H](CCC(N)=O)NC(=O)[C@@H](NC(=O)[C@H](C)NC(=O)[C@@H]1CSSC[C@H](NC(=O)[C@H](CCCNC(=N)N)NC(=O)[C@H](CCCNC(=N)N)NC(=O)[C@H](Cc2c[nH]cn2)NC(=O)[C@H](CCC(=O)O)NC(=O)CC[C@H](NC(=O)CCCCCCCCCCCCCCCCCCC(=O)O)C(=O)O)C(=O)N[C@@H](CC(N)=O)C(=O)N[C@@H]([C@@H](C)O)C(=O)N[C@@H](C)C(=O)N[C@@H]([C@@H](C)O)C(=O)N1)[C@@H](C)O)C(=O)N[C@@H](CC(C)C)C(=O)N1CCC[C@H]1C(=O)N1CCC[C@H]1C(=O)N[C@H](C(=O)N[C@@H](CC(N)=O)C(=O)N[C@H](C(=O)NCC(=O)N[C@@H](CO)C(=O)N[C@@H](CC(N)=O)C(=O)N[C@H](C(=O)N[C@@H](Cc1ccc(O)cc1)C(N)=O)[C@@H](C)O)C(C)C)[C@@H](C)O [Example 55, N-alpha-[(S)-4-Carboxy-4-(19-carboxynonadecanoylamino)butyryl]-Glu-His-Arg-[Arg1,His17]-pramlintide] ({C20 diacid-γGlu}-EHRRCNTATCATQRLANFLHHSSNNFGPILPPTNVGSNTY-NH2; disulfide 5-10) | 0.2 nM | 38 h |
| CC[C@H](C)[C@H](NC(=O)[C@@H]1CCCN1C(=O)CNC(=O)[C@H](Cc1ccccc1)NC(=O)[C@H](CC(N)=O)NC(=O)[C@H](CC(N)=O)NC(=O)[C@H](CO)NC(=O)[C@H](CO)NC(=O)[C@H](Cc1c[nH]cn1)NC(=O)[C@H](Cc1c[nH]cn1)NC(=O)[C@H](CC(C)C)NC(=O)[C@H](Cc1ccccc1)NC(=O)[C@H](CC(N)=O)NC(=O)[C@H](C)NC(=O)[C@H](CC(C)C)NC(=O)[C@H](CCCNC(=N)N)NC(=O)[C@H](CCC(N)=O)NC(=O)[C@@H](NC(=O)[C@H](C)NC(=O)[C@@H]1CSSC[C@H](NC(=O)[C@H](Cc2c[nH]cn2)NC(=O)[C@H](Cc2c[nH]cn2)NC(=O)[C@H](Cc2c[nH]cn2)NC(=O)[C@H](CCC(=O)O)NC(=O)CC[C@H](NC(=O)CCCCCCCCCCCCCCCCCCC(=O)O)C(=O)O)C(=O)N[C@@H](CC(N)=O)C(=O)N[C@@H]([C@@H](C)O)C(=O)N[C@@H](C)C(=O)N[C@@H]([C@@H](C)O)C(=O)N1)[C@@H](C)O)C(=O)N[C@@H](CC(C)C)C(=O)N1CCC[C@H]1C(=O)N1CCC[C@H]1C(=O)N[C@H](C(=O)N[C@@H](CC(N)=O)C(=O)N[C@H](C(=O)NCC(=O)N[C@@H](CO)C(=O)N[C@@H](CC(N)=O)C(=O)N[C@H](C(=O)N[C@@H](Cc1ccc(O)cc1)C(N)=O)[C@@H](C)O)C(C)C)[C@@H](C)O [Example 54, N-alpha-[(S)-4-Carboxy-4-(19-carboxynonadecanoylamino)butyryl]-Glu-His-His-[His1,His17]-pramlintide] ({C20 diacid-γGlu}-EHHHCNTATCATQRLANFLHHSSNNFGPILPPTNVGSNTY-NH2; disulfide 5-10) | 0.1 nM | 53 h |

From patent US8895504B2, “Amylin derivatives” (priority 2008, dated 2014)
